These results are taken from ChEMBL document CHEMBL1201862, “PubChem BioAssay data set” (2004).

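Growth conditions: 96-well plates. Treatment: test compound, 48 hours, 5 concentrations. Analysis: linear interpolation between bracketing concentrations; unreached endpoints set to highest concentration. GI50 = concentration required for 50% inhibition of growth.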 Calls of active or inactive are those of the source. Cut-off read from the data, not from the text of the source: active = GI50 up to about 1.1 µM and inactive = higher. A value given as a limit tells only on which side of the number the result lay.

Among the test systems are ACHN; CCRF-CEM; COLO 205; EKVX; HCC 2998; HCT-116; IGROV-1; M14; MCF7; MDA-MB-435; MDA-N; MOLT-4; NCI-H23; NCI-H460; NCI-H522; RPMI-8226; SF-295; SW-620; U-251; UACC-62.
Holding throughout (assay): growth of human tumour cells (NCI), 48 h

As to `O=C1c2cccnc2-c2nccc3c2c1nc1cc(Br)ccc13`, the GI50 is 0.208 µM (active) with ACHN; 0.0989 µM (active) in the assay on CCRF-CEM; 0.798 µM (active) in the assay on COLO 205; 1.15 µM (inactive) in the assay on EKVX; 0.406 µM (active) in the assay with HCC 2998; 0.025 µM (active) in the assay with HCT-116. Besides, the GI50 in the assay with IGROV-1 is 0.14 µM (active); in the assay with M14 it was 0.0553 µM (active); in the assay on MCF7 it was < 0.0366 µM (active); in the assay with MDA-MB-435 it was 0.198 µM (active); with MDA-N, 0.225 µM (active); in the assay with MOLT-4 it was 0.0955 µM (active). For the same compound, the GI50 is 0.0955 µM (active) in the assay with NCI-H23; 0.138 µM (active) in the assay on NCI-H460; 0.115 µM (active) in the assay with NCI-H522; 0.0748 µM (active) with RPMI-8226; 0.227 µM (active) with SF-295; < 0.0264 µM (active) with SW-620. For the same compound, the GI50 with U-251 was 0.0843 µM (active); in the assay with UACC-62 it was 0.178 µM (active).
Turning to `CCCCCCOP(=O)(OCCCCCC)OC(C(=O)OC)C(F)(F)F` (configuration not stated), the GI50 in the assay on ACHN, with CCRF-CEM, in the assay with COLO 205, with EKVX, in the assay on HCC 2998 and in the assay on HCT-116 was > 100 µM (inactive) throughout. Further, the GI50 in the assay on IGROV-1, with M14, in the assay on MCF7, in the assay on MDA-MB-435, in the assay with MDA-N and in the assay with MOLT-4 was > 100 µM (inactive) in each case. In addition, the GI50 with NCI-H23, with NCI-H522, with RPMI-8226, in the assay with SF-295, in the assay on SW-620 and with U-251 was > 100 µM (inactive) throughout. The GI50 in the assay with UACC-62 is > 100 µM (inactive).
For the compound `CC1C(c2ccc3c(c2)OCO3)c2cc3c(cc2OC1N1CCCC1)OCO3` (configuration not stated), the GI50 in the assay with ACHN is 29.3 µM (inactive); in the assay on CCRF-CEM, 26.4 µM (inactive); in the assay on COLO 205 it was 31.6 µM (inactive); with EKVX it was 37.9 µM (inactive); in the assay with HCC 2998, 17.8 µM (inactive); with HCT-116, 18 µM (inactive). Besides, the GI50 with IGROV-1 is 30.3 µM (inactive); with M14 it was 25.5 µM (inactive); with MCF7, 33.1 µM (inactive); in the assay with MDA-MB-435, 5.52 µM (inactive); with MDA-N it was 16.1 µM (inactive); with MOLT-4, 27.4 µM (inactive). In addition, the GI50 in the assay with NCI-H23 is 38.7 µM (inactive); with NCI-H460 it was 34.4 µM (inactive); in the assay with NCI-H522 it was 18 µM (inactive); in the assay on RPMI-8226, 29.2 µM (inactive); in the assay with SF-295 it was 24 µM (inactive); in the assay on SW-620 it was 32.5 µM (inactive). Further, the GI50 in the assay on UACC-62 is 53.6 µM (inactive).
In the case of `CC1=NN(c2nc(N)nc(-c3cc4ccccc4oc3=N)n2)C(C)(C)C1`, the GI50 with ACHN was 19 µM (inactive); in the assay on CCRF-CEM, 20.7 µM (inactive); in the assay on COLO 205 it was 17 µM (inactive); with EKVX, 14.7 µM (inactive); with HCC 2998, 15 µM (inactive); with HCT-116, 19.6 µM (inactive). For the same compound, the GI50 in the assay on IGROV-1 is 15.3 µM (inactive); with M14, 20.6 µM (inactive); with MCF7, 27.7 µM (inactive); with MDA-MB-435, 19.7 µM (inactive); in the assay with MDA-N, 16.5 µM (inactive); in the assay with MOLT-4, 12.9 µM (inactive). Further, the GI50 is 16.1 µM (inactive) with NCI-H23; 17.3 µM (inactive) in the assay with NCI-H460; 20.6 µM (inactive) in the assay with NCI-H522; 19.6 µM (inactive) in the assay with RPMI-8226; 18.2 µM (inactive) with SF-295; 27 µM (inactive) with U-251. In addition, in the assay with UACC-62, the GI50 was 16.2 µM (inactive).
For the compound `COC1CC(NC(=O)C(F)(F)F)C(OC(C)=O)C(C)O1` (configuration not stated), the GI50 in the assay on ACHN, in the assay with CCRF-CEM, with COLO 205, in the assay with EKVX, in the assay with HCC 2998 and with HCT-116 was > 100 µM (inactive) each time. Further, the GI50 with IGROV-1, in the assay on M14, with MCF7, in the assay with MDA-MB-435, in the assay with MDA-N and in the assay with MOLT-4 was > 100 µM (inactive) in each case. The GI50 in the assay with NCI-H23, with NCI-H460, with NCI-H522, in the assay on RPMI-8226, in the assay on SF-295 and with SW-620 was > 100 µM (inactive) throughout. For the same compound, the GI50 in the assay on U-251 and in the assay with UACC-62 was > 100 µM (inactive) throughout.
`C=C(C)[C@@]1(O)CCCC[C@@H]1CC(Sc1ccccc1)Sc1ccccc1`: the GI50 in the assay on ACHN is 37.6 µM (inactive); in the assay with CCRF-CEM it was 23.4 µM (inactive); with COLO 205, 16.4 µM (inactive); in the assay with EKVX, 13.4 µM (inactive); in the assay with HCC 2998, 16.5 µM (inactive); in the assay with HCT-116, 12.5 µM (inactive). Besides, the GI50 was 16.4 µM (inactive) in the assay with IGROV-1; 17.9 µM (inactive) in the assay with M14; 24.7 µM (inactive) with MCF7; 16.2 µM (inactive) with MDA-MB-435; 20 µM (inactive) with MDA-N; 9.08 µM (inactive) in the assay with MOLT-4. In addition, the GI50 is 14.2 µM (inactive) with NCI-H23; 13.9 µM (inactive) with NCI-H460; 11.7 µM (inactive) in the assay with NCI-H522; 11.3 µM (inactive) with RPMI-8226; 16.6 µM (inactive) in the assay on SF-295; 21.1 µM (inactive) with U-251. Besides, in the assay on UACC-62, the GI50 was 41.9 µM (inactive).
As to `Cc1ccc(S(=O)(=O)n2ccc(-c3ccc4ccn(S(=O)(=O)c5ccc(C)cc5)c4c3)c2)cc1`, the GI50 in the assay on ACHN, in the assay with CCRF-CEM, in the assay on COLO 205, in the assay with EKVX, in the assay on HCC 2998 and with HCT-116 was > 100 µM (inactive) each time. The GI50 with IGROV-1, in the assay with M14, in the assay with MCF7, in the assay on MDA-MB-435, with MDA-N and in the assay with MOLT-4 was > 100 µM (inactive) throughout. Also, the GI50 in the assay on NCI-H23, in the assay on NCI-H522, in the assay with RPMI-8226, in the assay with SF-295, in the assay on SW-620 and in the assay with U-251 was > 100 µM (inactive) each time. In addition, the GI50 in the assay on UACC-62 is > 100 µM (inactive).
With `COc1ccc(OC)c2c(=O)cc(-c3ccccc3)[nH]c12`, the GI50 with ACHN, with CCRF-CEM, with COLO 205, in the assay on EKVX, in the assay with HCC 2998 and with HCT-116 was > 100 µM (inactive) in each case. Moreover, the GI50 with IGROV-1, in the assay with M14, in the assay on MCF7, in the assay on MDA-MB-435, in the assay on MDA-N and with MOLT-4 was > 100 µM (inactive) in each case. Further, the GI50 in the assay with NCI-H23 is > 100 µM (inactive); in the assay with NCI-H460, > 100 µM (inactive); in the assay on NCI-H522 it was 7.45 µM (inactive); with RPMI-8226, > 100 µM (inactive); in the assay with SF-295, > 100 µM (inactive); in the assay with SW-620 it was > 100 µM (inactive). Besides, the GI50 in the assay on U-251 and in the assay on UACC-62 was > 100 µM (inactive) in each case.
`Cc1ccc(C2SCC(=O)N2NC(=O)c2ccncc2)s1` (configuration not stated): the GI50 with ACHN, in the assay with CCRF-CEM, with COLO 205, in the assay with EKVX, in the assay with HCC 2998 and in the assay on HCT-116 was > 100 µM (inactive) each time. Moreover, the GI50 in the assay with IGROV-1, with M14, in the assay with MCF7, in the assay on MDA-MB-435, with MDA-N and in the assay on MOLT-4 was > 100 µM (inactive) throughout. In addition, the GI50 in the assay with NCI-H23, in the assay with NCI-H522, in the assay with RPMI-8226, in the assay with SF-295, in the assay on SW-620 and in the assay with U-251 was > 100 µM (inactive) each time. In addition, in the assay on UACC-62, the GI50 was > 100 µM (inactive).
For the compound `CNC(=O)OCc1nc(N=[N+]=[N-])n(C)c1COC(=O)NC`, the GI50 in the assay on ACHN is 33.4 µM (inactive); in the assay with CCRF-CEM, 32.1 µM (inactive); in the assay on COLO 205, 32.8 µM (inactive); with EKVX, > 100 µM (inactive); with HCC 2998 it was 38.4 µM (inactive); in the assay on HCT-116 it was 46.2 µM (inactive). Also, the GI50 in the assay with IGROV-1 was > 100 µM (inactive); in the assay with MCF7, 38 µM (inactive); with MDA-MB-435, 37.2 µM (inactive); in the assay on MDA-N, 60.4 µM (inactive); in the assay on MOLT-4 it was 26 µM (inactive); in the assay with NCI-H23, 54.2 µM (inactive). In addition, the GI50 with NCI-H460 is 29.6 µM (inactive); in the assay on NCI-H522, 19.5 µM (inactive); in the assay with RPMI-8226, 28.6 µM (inactive); in the assay on SF-295 it was 67.1 µM (inactive); in the assay on SW-620, 66.1 µM (inactive); in the assay on U-251 it was 31.3 µM (inactive).
